Experimental data as given in patent US9850283B2, “Macrocyclic inhibitors of the PD-1/PD-L1 and CD80(B7-1)/PD-L1 protein/protein interactions” (BRISTOL-MYERS SQUIBB COMPANY, priority 2013, dated 2017).
Read-outs that look alike come from different tables or passages of the source. Starred links: 1 amine or outer side, 2 acyl side, 3 side chain; linkers in the order of their positions; H or OH if unused. Positions of bridges follow the written chain, without caps; N, C: chain ends. Non-standard residues stand in square brackets, D forms with d. Residues, ends and D or L forms follow the SMILES beside them. ξ: configuration not given here. X3 = O=C([C@@H]1C[C@@H](Cc2ccc(F)cc2)CN1[*:1])[*:2]; Phe(3,4,5-F3) = N[C@@H](Cc1cc(F)c(F)c(F)c1)C(=O)O; Hyp = O=C(O)[C@@H]1C[C@@H](O)CN1; NMeF = CN[C@@H](Cc1ccccc1)C(=O)O; dHyp = O=C(O)[C@H]1C[C@H](O)CN1; NMeNle = CCCC[C@H](NC)C(=O)O; NMeM = CN[C@@H](CCSC)C(=O)O; dPip = O=C(O)[C@H]1CCCCN1; NMeA = CN[C@@H](C)C(=O)O; Dab = NCC[C@H](N)C(=O)O; Dap = NC[C@H](N)C(=O)O; ξC = NC(CS)C(=O)O

Legend:
[1] = biological target: CMV-specific T cells (Homo sapiens, UniProt Q9NZQ7); assay: CMV-specific T cell function assay (IFNγ secretion, ELISA); type: cell-based
Experimental: CMV-specific T Cell Function Assay. […] AIM-V medium (Life Technologies, Grand Island, N.Y.) supplemented with 10% heat-inactivated fetal bovine serum (FBS, Sigma, St Louis, Mo.) was used at a total volume of 200 µL/well in triplicate. The cells were cultured for 4 days at 37° C., 5% CO2 at which time culture supernatant was harvested for determination of secreted IFNγ by ELISA (OptEIA hIFNγ ELISA Kit, BD Biosciences, San Jose, Calif.).

[2] = biological target: T1, Human PD-L1/PD-1 (Homo sapiens, UniProt Q9NZQ7); assay: HTRF PD-1-Ig/PD-L1-His binding assay (human PD-L1)
T1 construct: made in house; host or cells: HEK293T
In short: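 Readout: time-resolved FRET between Eu cryptate-labeled anti-Ig (1 nM final) and APC-labeled anti-His (20 nM final) antibodies. These detect interaction of Fc-fused PD-1 with His-tagged human PD-L1 in dPBS containing 0.1% BSA and 0.05% Tween-20.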

[3] = biological target: T2, LK35.2-hPD-L1 cells / PE-labeled PD-1-Ig (Homo sapiens, UniProt Q9NZQ7); assay: LK35.2-hPD-L1 cell binding high-content screening assay; type: cell-based; conditions: cell binding assay, cell line not given
T2 construct: expressed in transfected cells; host or cells: LK35.2 mouse B cell line
In short: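 Compound effect on PD-1/PD-L1 binding is measured by imaging cell-associated phycoerythrin signal. Human PD-1-Ig (PE on Ig tag, 1 nM final) is applied with compound to a murine B cell line overexpressing human PD-L1 for 1 h at 37 °C in serum-containing RPMI.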

[4] = value given instead of cluster, read-out: CMV Recall EC50 value
[5] = value given instead of cluster, read-out: HTRF IC50 value
[6] = value given instead of cluster, read-out: CBA IC50 value
[7] = numeric value, read-out: CMV Recall EC50 values

T1 sequence (Q9NZQ7 with tags, fused parts or gaps): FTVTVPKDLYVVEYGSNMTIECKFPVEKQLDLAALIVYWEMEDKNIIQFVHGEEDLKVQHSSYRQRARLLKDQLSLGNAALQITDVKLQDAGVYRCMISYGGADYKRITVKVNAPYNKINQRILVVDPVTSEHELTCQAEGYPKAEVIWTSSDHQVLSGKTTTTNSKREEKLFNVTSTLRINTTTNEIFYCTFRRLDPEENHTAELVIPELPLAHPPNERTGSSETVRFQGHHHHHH
T2 sequence (Q9NZQ7 19-290): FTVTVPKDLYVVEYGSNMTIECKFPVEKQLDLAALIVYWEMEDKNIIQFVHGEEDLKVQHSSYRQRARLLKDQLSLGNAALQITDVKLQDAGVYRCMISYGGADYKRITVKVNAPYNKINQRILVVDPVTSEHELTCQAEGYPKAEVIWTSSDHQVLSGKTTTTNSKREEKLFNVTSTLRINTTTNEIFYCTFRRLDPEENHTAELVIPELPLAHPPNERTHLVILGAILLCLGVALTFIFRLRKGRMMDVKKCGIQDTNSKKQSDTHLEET
CMV-specific T cells, sequence (Q9NZQ7 19-290): as above

| EC50 [1, 4] [nM] | IC50 [2, 5] [nM] | IC50 [3, 6] [nM] | EC50 [1, 7] [nM] | IC50 ([2]; numeric value, read-out: HTRF IC50 values) [nM] | IC50 ([3]; numeric value, read-out: CBA IC50 values) [nM] | SMILES |
| --- | --- | --- | --- | --- | --- | --- |
| 100 | 6.76 | 3.14 | – | – | – | CCCC[C@H]1C(=O)N(C)[C@@H](CCCC)C(=O)N[C@@H](CCN)C(=O)N[C@H](C(=O)NCC(N)=O)CSCC(=O)N[C@@H](Cc2ccc(O)cc2)C(=O)N(C)[C@@H](C)C(=O)N[C@@H](CCN)C(=O)N2CCC[C@H]2C(=O)N[C@@H](Cc2c[nH]cn2)C(=O)N[C@@H](CCC(=O)O)C(=O)N2C[C@H](O)C[C@H]2C(=O)N[C@@H](Cc2c[nH]c3ccccc23)C(=O)N[C@@H](CO)C(=O)N[C@@H](Cc2c[nH]c3ccccc23)C(=O)N1C [Example 5093] ({CH2CO}-Y[NMeA][Dab]PHE[Hyp]WSW[NMeNle][NMeNle][Dab]CG-NH2; thioether N-14) |
| – | – | – | 38.3 | – | – | CCCC[C@H]1C(=O)N(C)[C@@H](CCCC)C(=O)N[C@@H](CCN)C(=O)N[C@H](C(=O)NCC(N)=O)CSCC(=O)N[C@@H](Cc2ccc(O)cc2)C(=O)N(C)[C@@H](C)C(=O)N[C@@H](CC(N)=O)C(=O)N2CCC[C@H]2C(=O)N[C@@H](Cc2c[nH]cn2)C(=O)N[C@@H](CCC(=O)O)C(=O)N2C[C@H](Cc3ccc(F)cc3)C[C@H]2C(=O)N[C@@H](Cc2c[nH]c3ccccc23)C(=O)N[C@@H](CCN)C(=O)N[C@@H](Cc2c[nH]c3ccccc23)C(=O)N1C [Example 13011] ({CH2CO}-Y[NMeA]NPHE[X3]W[Dab]W[NMeNle][NMeNle][Dab]CG-NH2; thioether N-14) |
| 3.27 | 5.77 | 1.81 | – | – | – | CCCC[C@H]1C(=O)N(C)[C@@H](CCCC)C(=O)N[C@@H](CC(C)C)C(=O)N[C@H](C(=O)NCC(N)=O)CSCC(=O)N[C@@H](Cc2ccc(O)cc2)C(=O)N(C)[C@@H](C)C(=O)N[C@@H](CC(N)=O)C(=O)N2CCC[C@H]2C(=O)N[C@@H](CN)C(=O)N[C@@H](CCC(=O)O)C(=O)N2C[C@H](O)C[C@H]2C(=O)N[C@@H](Cc2c[nH]c3ccccc23)C(=O)N[C@@H](CCN)C(=O)N[C@@H](Cc2c[nH]c3ccccc23)C(=O)N1C [Example 5067] ({CH2CO}-Y[NMeA]NP[Dap]E[Hyp]W[Dab]W[NMeNle][NMeNle]LCG-NH2; thioether N-14) |

Further lines, the compound ahead of its results:

| SMILES | EC50 [1, 4] [nM] | IC50 [2, 5] [nM] | IC50 [3, 6] [nM] | EC50 [1, 7] [nM] | IC50 ([2]; numeric value, read-out: HTRF IC50 values) [nM] | IC50 ([3]; numeric value, read-out: CBA IC50 values) [nM] |
| --- | --- | --- | --- | --- | --- | --- |
| CCCC[C@H]1C(=O)N[C@@H](CCCNC(=N)N)C(=O)NC(C(=O)NCC(N)=O)CSCC(=O)N[C@@H](Cc2ccc(O)cc2)C(=O)N(C)[C@@H](C)C(=O)N[C@@H](CC(N)=O)C(=O)N2CCC[C@H]2C(=O)N[C@@H](CN)C(=O)N[C@@H](CC(C)C)C(=O)N2C[C@H](O)C[C@H]2C(=O)N[C@@H](Cc2c[nH]c3ccccc23)C(=O)N[C@@H](CO)C(=O)N[C@@H](Cc2c[nH]c3ccccc23)C(=O)N(C)[C@@H](CCSC)C(=O)N1C (stereo partly shown) [Example 9091] ({CH2CO}-Y[NMeA]NP[Dap]L[Hyp]WSW[NMeM][NMeNle]R[ξC]G-NH2; thioether N-14) | – | – | – | 5.6 | 774 | 3.03 |
| CCCC[C@H]1C(=O)N2C[C@@H](O)C[C@@H]2C(=O)N[C@@H](CC(=O)O)C(=O)N[C@@H](C(C)C)C(=O)N(C)[C@@H](Cc2ccccc2)C(=O)N[C@@H](Cc2ccc(O)cc2)C(=O)N2CCCC[C@@H]2C(=O)N[C@@H](Cc2c[nH]c3ccccc23)C(=O)N[C@@H](Cc2ccc(O)cc2)C(=O)N[C@@H](CC(C)C)C(=O)N[C@H](C(=O)NCC(N)=O)CSCC(=O)N[C@@H](Cc2cc(F)c(F)c(F)c2)C(=O)N(C)[C@@H](Cc2ccccc2)C(=O)N1C [Example 3592] ({CH2CO}-[Phe(3,4,5-F3)][NMeF][NMeNle][dHyp]DV[NMeF]Y[dPip]WYLCG-NH2; thioether N-13) | 0.62 | 4 | 0.158 | – | – | – |
| CCCC[C@H]1C(=O)N([13CH3])[C@@H](CCCC)C(=O)N[C@@H](CCCNC(=N)N)C(=O)N[C@H](C(=O)NCC(N)=O)CSCC(=O)N[C@@H](Cc2ccc(O)cc2)C(=O)N([13CH3])[C@@H](C)C(=O)N[C@@H](CC(N)=O)C(=O)N2CCC[C@H]2C(=O)N[C@@H](Cc2cnc[nH]2)C(=O)N[C@@H](CC(C)C)C(=O)N2CCC[C@H]2C(=O)N[C@@H](Cc2c[nH]c3ccccc23)C(=O)N[C@@H](CO)C(=O)N[C@@H](Cc2csc3ccccc23)C(=O)N1[13CH3] [Example 6035] | 5.75 | 4.97 | 0.763 | – | – | – |
